How the values were obtained:
TRPM3 V990M mutant [1] = target: T1, TRPM3 V990M mutant (Homo sapiens, UniProt Q9HCF6, V1015M); test: Fura-2-based calcium imaging, HEK293T cells transfected with V990M hTRPM3; format: cell-based
T1 construct: expressed in transfected cells; host or cells: HEK293T
T1 sequence (Q9HCF6 1-1325 isoform Q9HCF6-10 V990M): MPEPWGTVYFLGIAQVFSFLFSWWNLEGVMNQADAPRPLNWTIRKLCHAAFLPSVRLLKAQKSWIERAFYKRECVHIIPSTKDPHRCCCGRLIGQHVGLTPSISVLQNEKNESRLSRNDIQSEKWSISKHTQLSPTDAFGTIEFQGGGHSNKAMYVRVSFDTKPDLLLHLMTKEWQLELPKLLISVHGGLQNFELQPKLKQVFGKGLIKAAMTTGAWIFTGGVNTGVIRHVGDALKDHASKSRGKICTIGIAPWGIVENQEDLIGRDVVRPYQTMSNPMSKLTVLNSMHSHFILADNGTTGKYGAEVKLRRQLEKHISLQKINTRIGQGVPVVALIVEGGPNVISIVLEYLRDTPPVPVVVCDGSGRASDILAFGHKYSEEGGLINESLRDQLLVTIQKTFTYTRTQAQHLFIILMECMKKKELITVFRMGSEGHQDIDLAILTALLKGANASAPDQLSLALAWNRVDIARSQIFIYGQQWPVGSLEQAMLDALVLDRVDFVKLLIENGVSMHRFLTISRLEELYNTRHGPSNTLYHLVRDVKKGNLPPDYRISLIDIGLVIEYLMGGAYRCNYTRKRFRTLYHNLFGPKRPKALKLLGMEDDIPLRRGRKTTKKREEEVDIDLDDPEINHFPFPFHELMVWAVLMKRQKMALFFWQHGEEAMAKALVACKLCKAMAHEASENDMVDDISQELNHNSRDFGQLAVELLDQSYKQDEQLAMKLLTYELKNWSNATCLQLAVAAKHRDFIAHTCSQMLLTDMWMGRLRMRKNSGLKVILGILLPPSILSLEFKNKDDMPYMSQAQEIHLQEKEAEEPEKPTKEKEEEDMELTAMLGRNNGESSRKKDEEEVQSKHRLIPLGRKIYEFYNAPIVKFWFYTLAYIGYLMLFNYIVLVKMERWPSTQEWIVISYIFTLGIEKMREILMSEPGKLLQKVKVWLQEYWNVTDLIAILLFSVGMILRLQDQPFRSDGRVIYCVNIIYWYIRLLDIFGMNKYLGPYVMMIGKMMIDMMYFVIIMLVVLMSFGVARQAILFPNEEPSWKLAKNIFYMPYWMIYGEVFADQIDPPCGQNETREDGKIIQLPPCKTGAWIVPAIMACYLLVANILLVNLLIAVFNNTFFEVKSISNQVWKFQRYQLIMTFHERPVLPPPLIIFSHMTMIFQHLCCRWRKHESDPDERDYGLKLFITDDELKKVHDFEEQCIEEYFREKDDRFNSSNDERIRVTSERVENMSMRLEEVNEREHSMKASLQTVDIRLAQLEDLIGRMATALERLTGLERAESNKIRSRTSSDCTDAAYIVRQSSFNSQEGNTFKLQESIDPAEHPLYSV
Description: (§1) HEK293T cells ([Graham et al., 1977]) were cultured as described previously ([Vriens et al., 2007]) and used up in passage number 14. HEK293T cells were tested for the lack of mycoplasma and transiently transfected with 2 µg of DNA using TransIT transfection reagent (Mirus) 36–48 hr before the measurements. In case of co-cultures a ratio of 1:1 between hTRPM3-YFP WT and mutants-YFP DNA was used.
(§2) All mutants were obtained by the standard PCR overlap extension method using hTRPM3 directly linked to YFP from pCAGGS/IRES-GFP vector ([Vriens et al., 2007]). Accuracy of all mutant sequences was verified by sequencing of the entire DNA constructs.
Changes in intracellular calcium concentration were monitored using ratiometric Fura-2-based fluorimetry. Cells were loaded with 2 µM Fura-2-acetoxymethyl ester (Alexis Biochemicals) for 30 min at 37°C. Fluorescence was measured during alternating illumination at 340 and 380 nm using Eclipse Ti (Nikon) fluorescence microscopy system, and absolute calcium concentration was calculated from the ratio of the fluorescence signals at these two wavelengths (R = F340/F380) as [Ca^2+]=Km × (R-Rmin)/(Rmax-R), where Km, Rmin and Rmax were estimated from in vitro calibration experiments with known calcium concentrations. The bath solution contained (in mM) 138 NaCl, 5.4 KCl, 2 CaCl2, 2 MgCl2, 10 glucose, and 10 HEPES, pH 7.4. […]

TRPM3 V990M mutant [2] = target: T1, TRPM3 V990M mutant; test: Whole-cell patch clamp, HEK293T cells expressing V990M hTRPM3; format: cell-based
Description: as §1, §2
Standard whole-cell patch-clamp recordings were performed with an EPC-10 amplifier and the PatchMasterPro Software (HEKA Elektronik, Lambrecht, Germany). Current measurements were performed at a sampling rate of 20 kHz and currents were digitally filtered at 2.9 kHz. In all measurements, 70% of the series resistance was compensated. The standard internal solution contained (in mM): 100 CsAsp, 45 CsCl, 10 EGTA, 10 HEPES, 1 MgCl2 (pH 7.2 with CsOH) or 140 potassium gluconate, 5 EGTA, 1 MgCl2, 10 HEPES and 2 NaATP (pH 7.3 with CsOH) for the measurements of Gβγ mediated inhibition and the standard extracellular solution contained (in mM): 150 NaCl, 1 MgCl2, 10 HEPES (pH 7.4 with NaOH). The standard patch pipette resistance was between 2 MΩ and 4 MΩ when filled with pipette solution. In experiments allowing Ca^2+-dependent desensitization of TRPM3, Mg^2+ was replaced by Ca^2+ in the extracellular solution, and Cs^+ was replaced by Na^+ in the pipette solution. […] The chemical ligands were dissolved in bath solution from a stock diluted in DMSO.

pregnenolone sulfate [PS]
PS concentration giving robust calcium responses (as low as) (TRPM3 V990M mutant [1]): 100 nM

CCC1(c2ccccc2)C(=O)NCNC1=O [primidone]
Effect on basal [Ca2+]i (TRPM3 V990M mutant [1]; primidone 100 µM, isosakuranetin 50 µM, did not fully return to WT level): reduced [Ca^2+]i
Block of PS-activated currents (TRPM3 V990M mutant [2]; primidone 25 µM, PS 40 µM, ±80 mV, cells co-expressing µ-opioid receptor): ~ 50%

Clc1ccccc1C(c1ccccc1)(c1ccccc1)n1ccnc1 [Clt, clotrimazole]
Activation of whole-cell currents in the absence of PS (TRPM3 V990M mutant [2]; Clt 10 µM): induced robust currents

Reference: publication PMC7253177, “Gain of channel function and modified gating properties in TRPM3 mutants causing intellectual disability and epilepsy” (eLife, 2020)
